Experimental data published in US4514330A, “Carbon-7-substituted atinomycin D analogue” (Trustees of Boston University, priority 1983, dated 1985).
Converted amounts (≈) assume the structure as drawn. Read-outs that look alike come from different tables or passages of the source. Values belong to the compound of their own block, whether it stands above or below them.

Experiments:
P-388 leukemia = test: In vivo antitumor activity against P-388 lymphocytic leukemia in CDF1 mice; details: for % ILS (percent increase in life span) / MST (median survival time) / cure (over 55 day survivors): days 1, 5, 9; for minimal effective dose: Mus musculus, P388, ip, read-out: MED (minimum effective dose, 40% increase in life span over control)
Experimental: Studies on in vivo activity of AMD and AMD analogues were carried out with P-388 lymphocytic leukemia in CDF1 hybrid mice. The drugs were administered either daily for 4 successive days (qd 1-4) or on days 1, 5 and 9 (q4d 1, 5, 9) beginning 1 day after tumor implantation.
^a Male CDF1 (18-23 g) mice were inoculated intraperitoneally
(ip) with 10^6 P388 cells on day 0. Drugs were administered, also ip,
in 10% dimethyl sulfoxidesaline on days 1, 5 and 9. Test solutions were
kept at 0-4° C., protected from light, and the stability and
homogeneity were checked periodically by TLC and HPLC.
^b MST = median survival time.
^c % ILS = percent increase in life span.
^d Over 55 day survivors. Average of three experiments. The
^a Drugs administed ip once daily either for 4 successive days (qd
1-4) or on days 1, 5 and 9 (q4d 1, 5 9), starting 1 day after tumor
^b MED (minimum effective dose) is the dose (milligrams/kilogram)
providing an increase in life span of 40% over control in P388

[1] = tested on: human lymphoblastic leukemic cells (CCRF-CEM); test: In vitro growth-inhibitory activity against human lymphoblastic leukemic cells (CCRF-CEM) in log phase; type: cell-based; details: for IC50: Homo sapiens
Experimental: ^b Using human lymohoblastic leukemia cells in logplastic growth.
Compounds were dissolved in Me2 So medium, final growth medium

DNA [2] = test: Thermal denaturation of DNA (ΔTm), stabilization of DNA helical structure on drug binding; design: species or system calf thymus; details: for Tm (ΔTm = Tm of DNA-drug complex minus Tm of DNA): drug 1.4 × 10^-4 M, DNA (P) 1.4 × 10^-3 M, 0.01 M phosphate buffer pH 7.0, EDTA, 5% dimethyl sulfoxide
Experimental: Thermal denaturation studies were carried out according to the procedure described in J. Med. Chem., Vol. 24, p. 1052 (1981). The ΔTm values in Table II give a measure of stabilization of DNA helical structure as a consequence of drug binding.
^a ΔTm = m of DNAdrug complex minus m of DNA.
Concentraiton of drug, 1.4 × 10^-4 M; of DNA (P), 1.4 ×
10^-3 M in 0.01 M phosphate buffer (pH 7.0), 5 × 10^-3 M in
EDTA and 5% dimethyl sulfoxide.
^d Highest dose tested. These values are derived at high temperatur
(67°-75° C.) and may not always correlate with the results
of other DNA-binding studies (e.g., absorptiometric or circular dichroic).
Melting points were obtained with a Thomas-Hoover melting point apparatus at a heating rate of 2° C./min. Column chromatography was accomplished with silica gel powder (Baker No. 3405, 60-20 mesh) or acid alumina (Woelm grade 1). Limited gel-filtration work was done on Sephadex LH-20, particle size 25-100 μm (Pharmacia Fine Chemicals). Thin-layer chromatography was performed on silica gel plates (E. M. Laboratories, Inc.). Solvent systems used were (A) butanol-formic acid-H2 O (75:13:12), (B) EtOAc-acetone (3:1), and (C) Cifferri, the organic phase of the mixture EtOAc-MeOH-H2 O (20:1:20). High-performance liquid chromatography was carried out on a Varian Model 5020 gradient liquid chromatograph equipped with CD-111L chromatography data system and fitted with Varian reversed-phase C18 column with isocratic solvent systems, CH3 -CN-5 mM NH4 OAc buffer, pH 6.4 (68:32 or 62:38), pressure 80-140 atm, flow rate 1.5 mL/min, with UV-visible variable and fixed wavelength dual detectors at 254 and 466 nm. Spectra were determined on the following instruments: IR spectra were obtained with a Perkin-Elmer Model 237 Infra Cord with KBr micropellets or chloroform solutions; UV-visible spectra were obtained on a Gilford 250 spectrophotometer, which, with the addition of a base-line reference compensator (Analog Multiplexer 6064) and thermoprogrammer, auto four cell programmer and thermoelectric cell holder 2577, was used to obtain thermal denaturation curves; NMR spectra were obtained on a JOEL FQ-90-90MHZ spectrometer equipped with Fourier transform; and CD spectra were obtained on a Cary 61 spectrophotometer. All elemental analyses were within ±0.4% of the theoretical values. Actinomycin D, batch no. NCS 3053, lot L554651-0-10, was provided by Natural Products Branch, National Cancer Institute, Silver Spring, Md. Calf thymus DNA type 1 was purchased from Sigma Chemical Co.

normal CDF1 male mice = test: Maximum tolerated dose (LD10) in normal, tumor-free CDF1 male mice; type: in vivo; details: for MTD (maximum tolerated dose, lethal for 10% of normal mice; = LD10): deaths during 21 days
Experimental: ^c MTD (maximum tolerated dose) is the lethal dose
(milligrams/kilogram) for 10% normal CDF1 male mice (18-23 g);
were calculated from a plot of log dose vs. percent mortality. Average of
two to three experiments.
Biological Experiments. Determination of LD10 Values. Tumor-free CDF1 male mice weighing 18-23 g were given a broad range of doses of drugs in 10% dimethyl sulfoxide-saline on either days 1, 5 and 9 or on 4 successive days. Drugs were administered intraperitoneally (ip).
The maximum tolerated doses of AMD and analogues that caused deaths in only 10% of the tested animals in 21 days were recorded as MTD. The results are an average of two experiments in each. The MTD values obtained following schedules q4d 1, 5, 9 (three injections) and qd 1-4 (four injections) are recorded in Table IV. These doses are the same as LD10 (lethal dose of 10% of tumor-free animals in 21 days).

DNA [3] = details: known analogues; cited from earlier work
DNA [4] = test: DNA-binding mode, covalent and noncovalent (statements)
calf thymus DNA = test: DNA binding by visible absorption and CD spectra of DNA (P)-drug complex; details: mole ratio DNA (P)/analogue = 10:1; 3b, 4b and 5b compared; 1.0×10^-5 M, pH 7
From the text: In FIG. 1, absorption (top) and circular dichroism (bottom) spectra in 0.01 M phosphate buffer (pH7) containing EDTA (10^-5 M) and Me2 SO (5%): 3b (...), 4b (---), 5b (--). Concentration of drug in each case was 1.0×10^-5 M. In this respect, they are almost indistinguishable from the known analogue 7-methoxyactinomycin D (5b), whose structure and physical properties we have previously reported. The absorption spectra of all these analogues in aqueous buffer are also almost superimposable. […] The absorption spectrum of the analogues above 240 nm is mainly due to the electronic configuration of the tricyclic chromophore. The CD spectrum in the same wavelength region is an indicator of peptide conformation in actinomycin analogues, because it is the peptide lactone ring that confers optical activity on the nearly planar chromophore. The nature of the CD spectra (3b, 4b and 5b) asserts that in these analogues there is an identical relationship between the chromophores and peptide lactones. This relationship is very important, because during binding to DNA, AMD and some analogues are known to rely on the cooperative role between the chromophore and the peptide lactones for their highly specific DNA-binding property.
Any change in the configurations of the peptide lactones on binding to DNA is generally expressed in the CD spectra of the analogue-DNA complexes. […] The changes in the visible absorption spectra of 3b, 4b and 5b and also their CD spectra observed after adding calf thymus DNA [mole ratio of DNA (P)/analogue=10:1] are identical (FIG. 2). In FIG. 2, the absorption (top) and CD spectra of the DNA (P)-drug complex (ratio 10:1). Concentrations, buffer and line types are as in FIG. 1.

[5] = three injections ip, q4d 1, 5, 9

SMILES: Cc1c2oc3c(C)c(O)cc(C(=O)N[C@@H]4C(=O)N[C@H](C(C)C)C(=O)N5CCC[C@H]5C(=O)N(C)CC(=O)N(C)[C@@H](C(C)C)C(=O)O[C@@H]4C)c3nc-2c(C(=O)N[C@@H]2C(=O)N[C@H](C(C)C)C(=O)N3CCC[C@H]3C(=O)N(C)CC(=O)N(C)[C@@H](C(C)C)C(=O)O[C@@H]2C)c(N)c1=O [Compound 2b, 7-hydroxyactinomycin D, reference compound]
- % ILS (percent increase in life span) (P-388 leukemia; 0.15 mg/kg ip): 10%
- MST (median survival time) (P-388 leukemia; 0.15 mg/kg ip): 12 days
- cure (over 55 day survivors) (P-388 leukemia; 0.15 mg/kg ip): 0/7
- % ILS (percent increase in life span) (P-388 leukemia; 0.30 mg/kg ip): 55%
- MST (median survival time) (P-388 leukemia; 0.30 mg/kg ip): 17 days
- cure (over 55 day survivors) (P-388 leukemia; 0.30 mg/kg ip): 0/7
- % ILS (percent increase in life span) (P-388 leukemia; 0.60 mg/kg ip): 89%
- MST (median survival time) (P-388 leukemia; 0.60 mg/kg ip): 21 days
- cure (over 55 day survivors) (P-388 leukemia; 0.60 mg/kg ip): 0/7
- % ILS (percent increase in life span) (P-388 leukemia; 1.20 mg/kg ip): 127%
- MST (median survival time) (P-388 leukemia; 1.20 mg/kg ip): 25 days
- cure (over 55 day survivors) (P-388 leukemia; 1.20 mg/kg ip): 0/7
- % ILS (percent increase in life span) (P-388 leukemia; 1.80 mg/kg ip): 136%
- MST (median survival time) (P-388 leukemia; 1.80 mg/kg ip): 26 days
- cure (over 55 day survivors) (P-388 leukemia; 1.80 mg/kg ip): 0/7
- % ILS (percent increase in life span) (P-388 leukemia; 3.00 mg/kg ip): 37%
- MST (median survival time) (P-388 leukemia; 3.00 mg/kg ip): 15 days
- cure (over 55 day survivors) (P-388 leukemia; 3.00 mg/kg ip): 0/7
- minimal effective dose (P-388 leukemia; four injections ip, qd 1-4): 0.2 mg/kg
- minimal effective dose (P-388 leukemia; [5]): 0.275 mg/kg
- therapeutic index: MTD/MED (P-388 leukemia; four injections ip, qd 1-4): 10
- activity in respect of % ILS, 1b versus 2b (P-388 leukemia; ip, q4d 1, 5, 9): approximately equiactive
- dose higher than AMD needed for equiactivity (P-388 leukemia; ip, q4d 1, 5, 9): > 14 fold
- therapeutic index: MTD/MED (P-388 leukemia; [5]): 15
- IC50 ([1]; final growth medium contained 1% Me2SO, log phase, read-out: ID50 (in vitro growth inhibition, CCRF-CEM)): 0.95 mg/L (≈ 0.747 µM)
- Tm (ΔTm = Tm of DNA-drug complex minus Tm of DNA) (DNA [2]): 6.7 ± 0.15 °C
- DNA melting profile / ΔTm character of the DNA complex (DNA [2]; thermal denaturation, words): sharp and smooth
- MTD (maximum tolerated dose, lethal for 10% of normal mice; = LD10) (normal CDF1 male mice; four injections ip, qd 1-4): 2.0 milligrams/kilogram
- MTD dose as multiple of the MTD dose for AMD (normal CDF1 male mice; q4d 1, 5, 9 schedule): 17 fold
- fold less toxic than AMD (normal CDF1 male mice; qd 1-4 schedule): 13 fold
- MTD (maximum tolerated dose, lethal for 10% of normal mice; = LD10) (normal CDF1 male mice; [5]): 4.2 milligrams/kilogram

SMILES: Cc1c2oc3c(C)c([N+](=O)[O-])cc(C(=O)N[C@@H]4C(=O)N[C@H](C(C)C)C(=O)N5CCC[C@H]5C(=O)N(C)CC(=O)N(C)[C@@H](C(C)C)C(=O)O[C@@H]4C)c3nc-2c(C(=O)N[C@@H]2C(=O)N[C@H](C(C)C)C(=O)N3CCC[C@H]3C(=O)N(C)CC(=O)N(C)[C@@H](C(C)C)C(=O)O[C@@H]2C)c(N)c1=O [Compound 7-nitro-, 7-nitro-]
- mode of DNA binding, same way as AMD (DNA [3]): by intercalation of the chromophore and concomitant hydrogen and hydrophobic interactions of the peptide lactones

SMILES: CCN(CC)C(=O)c1c2nc3c(C(=O)N(CC)CC)ccc(C)c3oc-2c(C)c(=O)c1N [Compound 1a, reference compound]
- Tm (ΔTm = Tm of DNA-drug complex minus Tm of DNA) (DNA [2]): 0 °C
- DNA-binding related activity (DNA [4]): no DNA-binding related activity

SMILES: Cc1c2oc3c(C)c(N)cc(C(=O)N[C@@H]4C(=O)N[C@H](C(C)C)C(=O)N5CCC[C@H]5C(=O)N(C)CC(=O)N(C)[C@@H](C(C)C)C(=O)O[C@@H]4C)c3nc-2c(C(=O)N[C@@H]2C(=O)N[C@H](C(C)C)C(=O)N3CCC[C@H]3C(=O)N(C)CC(=O)N(C)[C@@H](C(C)C)C(=O)O[C@@H]2C)c(N)c1=O [7-aminoactinomycin D]
- mode of DNA binding, same way as AMD (DNA [3]): by intercalation of the chromophore and concomitant hydrogen and hydrophobic interactions of the peptide lactones

SMILES: COc1cc(C(=O)N[C@@H]2C(=O)N[C@H](C(C)C)C(=O)N3CCC[C@H]3C(=O)N(C)CC(=O)N(C)[C@@H](C(C)C)C(=O)O[C@@H]2C)c2nc3c(C(=O)N[C@@H]4C(=O)N[C@H](C(C)C)C(=O)N5CCC[C@H]5C(=O)N(C)CC(=O)N(C)[C@@H](C(C)C)C(=O)O[C@@H]4C)c(N)c(=O)c(C)c-3oc2c1C [Compound 5b, 7-methoxyactinomycin D, reference compound]
- changes in visible absorption and CD spectra after adding calf thymus DNA (calf thymus DNA): identical

Now from value to compound, other results behind:

- IC50 ([1]; read-out: ID50 (the source's name)): 9 mg/L (≈ 17.6 µM)
- Tm (ΔTm = Tm of DNA-drug complex minus Tm of DNA) (DNA [2]): 0 °C
SMILES: CCN(CC)C(=O)c1c2nc3c(C(=O)N(CC)CC)cc(OCC4CO4)c(C)c3oc-2c(C)c(=O)c1N (stereo not drawn) [Compound 3a]
- fold less toxic compared to AMD and its analogues [1]: more than 1000 fold

- Tm (ΔTm = Tm of DNA-drug complex minus Tm of DNA) (DNA [2]): 0 °C
SMILES: CCN(CC)C(=O)c1c2nc3c(C(=O)N(CC)CC)cc(OCC(O)CO)c(C)c3oc-2c(C)c(=O)c1N (stereo not drawn) [Compound 4a]
- fold less toxic compared to AMD and its analogues [1]: more than 1000 fold

- Tm (ΔTm = Tm of DNA-drug complex minus Tm of DNA) (DNA [2]): 0 °C
SMILES: CCN(CC)C(=O)c1c2nc3c(C(=O)N(CC)CC)cc(O)c(C)c3oc-2c(C)c(=O)c1N [Compound 2a]
